Counter-ions that a name gives are not always drawn. Like-named read-outs stand apart in the source and are kept apart here.
Assays:
His6-GSK-3β = molecular target: T1, His6-GSK-3β (Homo sapiens, UniProt P49841); test: Inhibition of His6-GSK-3β kinase activity (ELISA-based format, time-resolved fluorescence readout); format: biochemical; conditions: read-out: GSK3β IC50
T1 construct: made in house; host or cells: Sf21 insect cells (baculovirus)
Summary of the method: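 Plate-bound recombinant GST-Rb substrate was phosphorylated for 30 min at 37° C by baculovirus-expressed His6-GSK-3β (200 ng/ml) at 20 μM ATP, 10 mM MgCl2, 2.5% DMSO. Europium time-resolved fluorescence of anti-phospho-Ser780 Rb signal gave inhibition, fitted to IC50.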

CDK5/GST-p25 = molecular target: T2, CDK5/GST-p25 (Homo sapiens, UniProt Q00535); test: Inhibition of CDK5/GST-p25 kinase activity (ELISA with time-resolved fluorescence readout); format: biochemical
T2 construct: The final construct, encoding for full-length human CDK5; made in house; host or cells: Sf21 insect cells (baculovirus co-infection)
Summary of the method: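 The substrate, GST-Rb(773-928), was immobilised on plates and phosphorylated for 20 min at 37 °C by 2 ng/ml CDK5/GST-p25 in HEPES pH 7.2 with 10 µM ATP and 10 mM MgCl2. Both proteins were human and co-expressed in insect cells. Ser-780 phosphorylation was read by europium time-resolved fluorescence and converted to IC50.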

T1 sequence (P49841 2-419): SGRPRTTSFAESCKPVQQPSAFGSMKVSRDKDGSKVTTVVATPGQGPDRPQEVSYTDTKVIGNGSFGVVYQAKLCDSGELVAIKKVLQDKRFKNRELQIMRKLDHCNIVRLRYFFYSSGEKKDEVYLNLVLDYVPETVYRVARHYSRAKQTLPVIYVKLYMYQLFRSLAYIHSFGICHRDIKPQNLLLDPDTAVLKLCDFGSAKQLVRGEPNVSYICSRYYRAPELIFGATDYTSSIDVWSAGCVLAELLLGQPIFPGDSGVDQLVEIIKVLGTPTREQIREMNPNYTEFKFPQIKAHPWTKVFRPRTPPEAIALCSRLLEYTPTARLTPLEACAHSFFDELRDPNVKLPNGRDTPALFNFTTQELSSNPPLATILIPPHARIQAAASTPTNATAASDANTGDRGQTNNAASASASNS
T2 sequence (Q00535 whole entry): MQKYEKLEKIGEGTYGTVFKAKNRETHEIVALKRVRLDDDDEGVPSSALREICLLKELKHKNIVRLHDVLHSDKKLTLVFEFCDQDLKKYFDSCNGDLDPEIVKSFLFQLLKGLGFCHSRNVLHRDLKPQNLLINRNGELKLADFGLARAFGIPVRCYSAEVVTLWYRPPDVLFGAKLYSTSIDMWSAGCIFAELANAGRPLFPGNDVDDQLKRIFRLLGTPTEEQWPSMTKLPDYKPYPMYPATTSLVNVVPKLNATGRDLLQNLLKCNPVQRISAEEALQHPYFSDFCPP
T2 sequence (Q15078 108-307 partner limits assumed): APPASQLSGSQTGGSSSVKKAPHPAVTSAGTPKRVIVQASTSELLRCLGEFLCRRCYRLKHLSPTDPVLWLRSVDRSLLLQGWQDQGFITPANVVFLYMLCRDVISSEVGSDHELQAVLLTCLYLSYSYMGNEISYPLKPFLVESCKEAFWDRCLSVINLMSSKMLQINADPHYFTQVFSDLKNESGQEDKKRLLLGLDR

Compound | melting point | IC50 (His6-GSK-3β; class symbols) [nM] | IC50 (CDK5/GST-p25; class symbols) [nM] | also measured
CCCCCn1cc2c(C3C(=O)Nc4ccc(C(F)(F)F)cc43)nc(Cl)nc2n1 (stereo not shown) | 267 °C (dec.) |  |  | 
CCOCCn1cc2c(C3C(=O)Nc4ccc(Cl)cc43)nc(NCCCNC)nc2n1 (stereo not shown) (as salt: hydrochloride) [Example 215, 5-Chloro-3-[2-(2-ethoxy-ethyl)-6-(3-methylamino-propylamino)-2H-pyrazolo [3,4-d]pyrimidin-4-yl]-1,3-dihydro-indol-2-one] | 275 to 277 °C |  |  | 
CCCn1cc2c(C3C(=O)Nc4ccc(Br)cc43)nc(NCCCNC)nc2n1 (stereo not shown) (as salt: hydrochloride) [Example 201, 5-Bromo-3-[6-(3-methylamino-propylamino)-2-propyl-2H-pyrazolo [3,4-d]pyrimidin-4-yl]-1,3-dihydro-indol-2-one hydrochloride] | 271 to 273 °C |  |  | 
CCCn1cc2c(C3C(=O)Nc4ccc(C#N)cc43)nc(Cl)nc2n1 (stereo not shown) [Example 183, 3-(6-Chloro-2-propyl-2H-pyrazolo [3,4-d]pyrimidin-4-yl)-2-oxo-2,3-dihydro-1H-indole-5-carbonitrile] | > 300 °C |  |  | 
COC[C@H]1C[C@@H](n2cnc3c(C4C(=O)Nc5ccc(C#N)cc54)ncnc32)[C@H](O)[C@@H]1O (stereo partly drawn) [Example 29, 3-[9-((1R,2S,3R,4R)-2,3-Dihydroxy-4-methoxymethyl-cyclopentyl)-9H-purin-6-yl]-2-oxo-2,3-dihydro-1H-indole-5-carbonitrile] | 230 to 236 °C (dec.) |  |  | 
N#Cc1ccc2c(c1)C(c1nc(NCCc3ccccc3)nc3nn(C4CCCC4)cc13)C(=O)N2 (stereo not shown) [Example 134, 3-(2-cyclopentyl-6-2-phenethylamino-2H-pyrazolo [3,4-d]pyrimidin-4-yl)-2-oxo-2,3-dihydro-1H-indole-5-carbonitrile] |  | < 300 |  | IC50 (CDK5/GST-p25; numeric bounds): > 3000 nM
O=C1Nc2ccc(Cl)cc2C1c1nc(N2CCOCC2)nc2nn(C3CCCC3)cc12 (stereo not shown) [Example 143, 5-Chloro-3-(2-cyclopentyl-6-morpholin-4-yl-2H-pyrazolo [3,4-d]pyrimidin-4-yl)-1,3-dihydro-indol-2-one] |  | < 300 | > 10000 | 
CN(C)CCN(C)c1nc(C2C(=O)Nc3ccc(Cl)cc32)c2cn(C3CCCC3)nc2n1 (stereo not shown) [Example 140, 5-Chloro-3-{2-cyclopentyl-6-[(2-dimethylamino-ethyl)-methyl-amino]-2H-pyrazolo[3,4-d]pyrimidin-4-yl}-1,3-dihydro-indol-2-one] |  | < 300 | > 10000 | 
N#Cc1ccc2c(c1)C(c1nc(N3CCN(CCc4cccs4)CC3)nc3nn(C4CCCC4)cc13)C(=O)N2 (stereo not shown) [Example 130, 3-{2-cyclopentyl-6-[4-(2-thiophen-2-yl-ethyl)-piperazin-1-yl]-2H-pyrazolo[3,4-d]pyrimidin-4-yl}-2-oxo-2,3-dihydro-1H-indole-5-carbonitrile] |  | < 300 | > 10000 | 
N#Cc1ccc2c(c1)C(c1nc(NCc3cccnc3)nc3nn(C4CCCC4)cc13)C(=O)N2 (stereo not shown) [Example 133, 3-{2-cyclopentyl-6-[(pyridin-3-ylmethyl)amino]-2H-pyrazolo[3,4-d]pyrimidin-4-yl}-2-oxo-2,3-dihydro-1H-indole-5-carbonitrile] |  | < 300 | < 300 | 
N#Cc1ccc2c(c1)C(c1nc(NCc3ccccn3)nc3nn(C4CCCC4)cc13)C(=O)N2 (stereo not shown) [Example 123, 3-{2-cyclopentyl-6-[(pyridin-2-yl-methyl)amino]-2H-pyrazolo[3,4-d]pyrimidin-4-yl}-2-oxo-2,3-dihydro-1H-indole-5-carbonitrile] |  | < 300 | < 300 | 
N#Cc1ccc2c(c1)C(c1nc(NCCN3CCSCC3)nc3nn(C4CCCC4)cc13)C(=O)N2 (stereo not shown) [Example 178, 3-[2-Cyclopentyl-6-(2-thiomorpholin-4-yl-ethylamino)-2H-pyrazolo[3,4-d]pyrimidin-4-yl]-2-oxo-2,3-dihydro-1H-indole-5-carbonitrile] |  | < 300 | 300 to 3000 | 
COc1ccc2c(c1)C(c1ncnc3nn(C4CCCCC4)cc13)C(=O)N2 (stereo not shown) [Example 52, 3-(2-Cyclohexyl-2H-pyrazolo[3,4-d]pyrimidin-4-yl)-5-methoxy-1,3-dihydro-indol-2-one] |  | 300 to 3000 | 300 to 3000 | 
N#Cc1ccc2c(c1)C(c1nc(NCc3ccc(Cl)nc3)nc3nn(C4CCCC4)cc13)C(=O)N2 (stereo not shown) [Example 171, 3-{6-[(6-Chloro-pyridin-3-ylmethyl)-amino]-2-cyclopentyl-2H-pyrazolo[3,4-d]pyrimidin-4-yl}-2-oxo-2,3-dihydro-1H-indole-5-carbonitrile] |  | < 300 | < 300 | 
CN(Cc1cccnc1)c1nc(C2C(=O)Nc3ccc(C#N)cc32)c2cn(C3CCCC3)nc2n1 (stereo not shown) [Example 172, 3-[2-Cyclopentyl-6-(methyl-pyridin-3-ylmethyl-amino)-2H-pyrazolo [3,4-d]pyrimidin-4-yl]-2-oxo-2,3-dihydro-1H-indole-5-carbonitrile] |  | < 300 | > 10000 | 
O=C1Nc2ccc(F)cc2C1c1nc(NCc2ccncc2)nc2c1CCC2 (stereo not shown) [Example 320, 5-Fluoro-3-{2-[(pyridin-4-ylmethyl)-amino]-6,7-dihydro-5H-cyclopentapyrimidin-4-yl}-1,3-dihydro-indol-2-one] |  |  |  | IC50 (His6-GSK-3β; numeric bounds): > 3000 nM; IC50 (CDK5/GST-p25; numeric bounds): > 3000 nM
O=C1Nc2ccc(Br)cc2C1c1nc(NCc2ccncc2)nc2nn(C3CCCC3)cc12 (stereo not shown) [Example 180, 5-Bromo-3-{2-cyclopentyl-6-[(pyridin-4-ylmethyl)-amino]-2H-pyrazolo[3,4-d]pyrimidin-4-yl}-1,3-dihydro-1H-indol-2-one] |  | < 300 | < 300 | 

More lines, main results first:

melting point | IC50 (His6-GSK-3β; class symbols) [nM] | IC50 (CDK5/GST-p25; class symbols) [nM] | Compound | also measured
232 to 236 °C |  |  | CNCCCNc1nc(C2C(=O)Nc3ccc(Br)cc32)c2cn(CCOC)nc2n1 (stereo not shown) (as salt: hydrochloride) [Example 226, 5-Bromo-3-[2-(2-methoxy-ethyl)-6-(3-methylamino-propylamino)-2H-pyrazolo[3,4-d]pyrimdin-4-yl]-1,3-dihydro-indol-2-one] | 
260 to 262 °C |  |  | CNCCCNc1nc(C2C(=O)Nc3ccc(C(F)(F)F)cc32)c2cn(C3CCCC3)nc2n1 (stereo not shown) (as salt: hydrochloride) [Example 253, 3-[2-Cyclopentyl-6-(3-methylamino-propylamino)-2H-pyrazolo [3,4-d]pyrimidin-4-yl]-5-trifluoromethyl-1,3-dihydro-indol-2-one hydrochloride salt] | 
248 to 251 °C |  |  | COCCn1cc2c(C3C(=O)Nc4ccc(Br)cc43)nc(NCCC3CCNCC3)nc2n1 (stereo not shown) (as salt: hydrochloride) [Example 227, 5-Bromo-3-[2-(2-methoxy-ethyl)-6-(2-piperidin-4-yl-ethylamino)-2H-pyrazolo[3,4-d]pyrimidin-4-yl]-1,3-dihydro-indol-2-one] | 
271 to 273 °C |  |  | CNCCCNc1nc(C2C(=O)Nc3ccc(Br)cc32)c2cn(C)nc2n1 (stereo not shown) (as salt: hydrochloride) [Example 306, 5-Bromo-3-[2-methyl-6-(3-methylamino-propylamino)-2H-pyrazolo [3,4-d]pyrimidin-4-yl]-1,3-dihydro-indol-2-one] | 
270 to 273 °C |  |  | COCCn1cc2c(C3C(=O)Nc4ccc(Br)cc43)nc(NCCC3CCCNC3)nc2n1 (stereo not shown) (as salt: hydrochloride) [Example 228, 5-Bromo-3-[2-(2-methoxy-ethyl)-6-(2-piperidin-3-yl-ethylamino)-2H-pyrazolo[3,4-d]pyrimidin-4-yl]-1,3-dihydro-indol-2-one] | 
 | > 10000 | > 10000 | N#Cc1ccc2c(c1)C(c1nc(Nc3ccc(F)nc3)nc3c1CCC3)C(=O)N2 (stereo not shown) [Example 351, 3-[2-(6-Fluoro-pyridin-3-ylamino)-6,7-dihydro-5H-cyclopentapyrimidin-4-yl]-2-oxo-2,3-dihydro-1H-indole-5-carbonitrile] | 
 | < 300 | 300 to 3000 | CCCn1cc2c(C3C(=O)Nc4ccc(Br)cc43)nc(NCCNC)nc2n1 (stereo not shown) [Example 365, 5-Bromo-3-[6-(2-methylamino-ethylamino)-2-propyl-2H-pyrazolo [3,4-d]pyrimidin-4-yl]-1,3-dihydro-indol-2-one hydrochloride salt] | 
 | > 10000 | > 10000 | O=C1Nc2ccc(F)cc2C1c1nc(NCCN2CCOCC2)nc2c1CCC2 (stereo not shown) [Example 318, 5-Fluoro-3-[2-(2-morpholin-4-ylethylamino)-6,7-dihydro-5H-cyclopentapyrimidin-4-yl]-1,3-dihydro-indol-2-one] | 
 | > 10000 | > 10000 | O=C1Nc2ccc(Br)cc2C1c1nc(NCc2ccccn2)nc2c1CCC2 (stereo not shown) [Example 339, 5-Bromo-3-{2-[(pyridin-2-ylmethyl)-amino]-6,7-dihydro-5H-cyclopentapyrimidin-4-yl}-1,3-dihydro-indol-2-one] | 
 | 300 to 3000 | 300 to 3000 | CCOCCn1cc2c(C3C(=O)Nc4ccc(Cl)cc43)nc(NCCCNC)nc2n1 (stereo not shown) [Example 215, 5-Chloro-3-[2-(2-ethoxy-ethyl)-6-(3-methylamino-propylamino)-2H-pyrazolo [3,4-d]pyrimidin-4-yl]-1,3-dihydro-indol-2-one] | 
 | < 300 | < 300 | Cn1cc2c(C3C(=O)Nc4ccc(Br)cc43)nc(NCCc3cccnc3)nc2n1 (stereo not shown) [Example 305, 5-Bromo-3-[2-methyl-6-(2-pyridin-3-yl-ethylamino)-2H-pyrazolo [3,4-d]pyrimidin-4-yl]-1,3-dihydro-indol-2-one] | 

From US8354414B2, “Substituted bicyclic pyrimidines” (Cephalon, Inc, priority 2006, dated 2013)
